Experimental data taken from publication PMC7265341, “Quantifying CDK inhibitor selectivity in live cells” (Nature Communications, 2020).
Read-outs that look alike come from different tables or passages of the source.

What was measured:
CDK15/Cyclin Y = CDK15/Cyclin Y (Homo sapiens, UniProt Q96Q40); test: NanoBRET live-cell target engagement, NanoLuc-CDK15/Cyclin Y in HEK-293; type: binding; conditions: CDK15/Y
CDK16/Cyclin Y = CDK16/Cyclin Y (Homo sapiens, UniProt Q00536); test: NanoBRET live-cell target engagement, CDK16-NanoLuc/Cyclin Y in HEK-293; type: binding; conditions: CDK16/Y
CDK8/Cyclin C = CDK8/Cyclin C (Homo sapiens, UniProt P49336); test: NanoBRET live-cell target engagement, NanoLuc-CDK8/Cyclin C in HEK-293; type: binding; conditions: CDK8/C
Chain of CDK8/Cyclin C (P49336 whole entry): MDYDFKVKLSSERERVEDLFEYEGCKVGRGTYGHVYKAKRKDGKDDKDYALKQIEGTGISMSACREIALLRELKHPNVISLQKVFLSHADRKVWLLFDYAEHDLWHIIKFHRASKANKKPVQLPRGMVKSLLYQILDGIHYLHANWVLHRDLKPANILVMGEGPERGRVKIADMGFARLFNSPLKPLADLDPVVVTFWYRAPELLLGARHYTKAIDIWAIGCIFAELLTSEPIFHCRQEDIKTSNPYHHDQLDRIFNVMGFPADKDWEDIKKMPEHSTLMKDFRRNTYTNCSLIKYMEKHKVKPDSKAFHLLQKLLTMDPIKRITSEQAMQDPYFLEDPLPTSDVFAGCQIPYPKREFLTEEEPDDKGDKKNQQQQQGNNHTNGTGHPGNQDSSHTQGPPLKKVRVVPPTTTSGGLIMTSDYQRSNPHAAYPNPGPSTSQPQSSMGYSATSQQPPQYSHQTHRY
Chain of CDK8/Cyclin C (P24863 whole entry partner): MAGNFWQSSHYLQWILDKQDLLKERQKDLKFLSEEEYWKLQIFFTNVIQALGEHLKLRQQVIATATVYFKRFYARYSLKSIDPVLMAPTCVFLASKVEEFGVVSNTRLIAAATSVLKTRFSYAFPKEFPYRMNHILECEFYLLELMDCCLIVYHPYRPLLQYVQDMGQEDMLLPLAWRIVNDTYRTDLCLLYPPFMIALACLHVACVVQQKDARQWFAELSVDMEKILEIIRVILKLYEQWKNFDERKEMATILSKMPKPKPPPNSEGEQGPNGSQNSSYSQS

CDK20/Cyclin H = CDK20/Cyclin H (Homo sapiens, UniProt Q8IZL9); test: NanoBRET live-cell target engagement, NanoLuc-CDK20/Cyclin H in HEK-293; type: binding; conditions: CDK20/H; 10µM
CDK6/Cyclin D1 = CDK6/Cyclin D1 (Homo sapiens, UniProt Q00534); test: NanoBRET live-cell target engagement, NanoLuc-CDK6/Cyclin D1 in HEK-293; type: binding; conditions: CDK6/D1
CDK19/Cyclin C = CDK19/Cyclin C (Homo sapiens, UniProt Q9BWU1); test: NanoBRET live-cell target engagement, NanoLuc-CDK19/Cyclin C in HEK-293
Chain of CDK19/Cyclin C (Q9BWU1 whole entry): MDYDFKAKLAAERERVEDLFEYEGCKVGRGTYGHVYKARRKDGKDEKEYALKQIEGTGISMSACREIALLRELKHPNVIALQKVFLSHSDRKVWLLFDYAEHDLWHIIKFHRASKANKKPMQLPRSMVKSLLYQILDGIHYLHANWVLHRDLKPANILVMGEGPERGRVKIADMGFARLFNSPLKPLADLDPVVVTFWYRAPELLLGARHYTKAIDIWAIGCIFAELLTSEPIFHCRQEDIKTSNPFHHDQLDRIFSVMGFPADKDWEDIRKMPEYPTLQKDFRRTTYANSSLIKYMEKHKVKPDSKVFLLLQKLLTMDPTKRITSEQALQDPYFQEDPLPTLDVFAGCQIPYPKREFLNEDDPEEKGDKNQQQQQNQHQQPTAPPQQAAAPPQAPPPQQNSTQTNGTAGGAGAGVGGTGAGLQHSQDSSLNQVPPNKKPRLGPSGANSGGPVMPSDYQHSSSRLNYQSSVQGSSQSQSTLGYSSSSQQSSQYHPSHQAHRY
Chain of CDK19/Cyclin C (P24863 whole entry partner): as the sequence (P24863 whole entry partner) above

CDK4/Cyclin D1 = CDK4/Cyclin D1 (Homo sapiens, UniProt P11802); test: NanoBRET live-cell target engagement, NanoLuc-CDK4/Cyclin D1 in HEK-293; type: binding; conditions: CDK4/D1
CDK9/Cyclin K = CDK9/Cyclin K (Homo sapiens, UniProt P50750); test: NanoBRET live-cell target engagement, NanoLuc-CDK9/Cyclin K in HEK-293; type: binding; conditions: CDK9/K, 10µM
CDK10/Cyclin L2 = CDK10/Cyclin L2 (Homo sapiens, UniProt Q15131); test: NanoBRET live-cell target engagement, CDK10-NanoLuc/Cyclin L2 in HEK-293; conditions: CDK10/L2
Chain of CDK10/Cyclin L2 (Q15131 whole entry): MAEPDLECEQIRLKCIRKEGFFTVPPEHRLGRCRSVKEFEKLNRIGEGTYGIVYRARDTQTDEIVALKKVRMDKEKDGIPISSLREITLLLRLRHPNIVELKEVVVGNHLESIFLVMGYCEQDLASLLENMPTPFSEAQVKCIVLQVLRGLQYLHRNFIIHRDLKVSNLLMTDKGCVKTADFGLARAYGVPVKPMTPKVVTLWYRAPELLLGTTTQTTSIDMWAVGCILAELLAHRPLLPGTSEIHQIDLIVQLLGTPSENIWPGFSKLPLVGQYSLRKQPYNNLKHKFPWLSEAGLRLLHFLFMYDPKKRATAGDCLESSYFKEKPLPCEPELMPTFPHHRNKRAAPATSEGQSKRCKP

CDK18/Cyclin Y = CDK18/Cyclin Y (Homo sapiens, UniProt Q07002); test: NanoBRET live-cell target engagement, CDK18-NanoLuc/Cyclin Y in HEK-293; type: binding; conditions: CDK18/Y
CDK3/Cyclin E1 = CDK3/Cyclin E1 (Homo sapiens, UniProt Q00526); test: NanoBRET live-cell target engagement, CDK3-NanoLuc/Cyclin E1 in HEK-293; type: binding; conditions: CDK3/E1
Chain of CDK3/Cyclin E1 (Q00526 whole entry): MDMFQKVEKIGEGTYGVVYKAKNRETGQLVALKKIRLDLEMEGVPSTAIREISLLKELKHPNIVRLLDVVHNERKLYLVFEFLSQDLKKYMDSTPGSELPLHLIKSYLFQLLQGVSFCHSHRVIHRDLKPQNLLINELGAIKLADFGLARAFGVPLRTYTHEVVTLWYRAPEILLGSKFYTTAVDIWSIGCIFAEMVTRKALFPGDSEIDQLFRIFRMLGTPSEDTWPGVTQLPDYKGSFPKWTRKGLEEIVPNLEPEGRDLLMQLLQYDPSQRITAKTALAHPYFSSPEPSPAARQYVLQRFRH
Chain of CDK3/Cyclin E1 (P24864 whole entry partner): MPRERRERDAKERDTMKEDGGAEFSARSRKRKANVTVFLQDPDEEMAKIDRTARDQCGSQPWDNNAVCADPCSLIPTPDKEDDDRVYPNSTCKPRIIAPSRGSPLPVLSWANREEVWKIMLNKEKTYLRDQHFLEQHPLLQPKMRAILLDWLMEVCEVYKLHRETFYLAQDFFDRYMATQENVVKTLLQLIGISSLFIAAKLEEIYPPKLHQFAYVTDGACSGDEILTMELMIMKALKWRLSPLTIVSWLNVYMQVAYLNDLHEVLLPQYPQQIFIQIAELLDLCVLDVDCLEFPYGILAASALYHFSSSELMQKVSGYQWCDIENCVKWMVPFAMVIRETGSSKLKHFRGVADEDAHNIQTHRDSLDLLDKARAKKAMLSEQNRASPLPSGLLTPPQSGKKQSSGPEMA

CDK17/Cyclin Y = CDK17/Cyclin Y (Homo sapiens, UniProt Q00537); test: NanoBRET live-cell target engagement, CDK17-NanoLuc/Cyclin Y in HEK-293; type: binding; conditions: CDK17/Y
Chain of CDK17/Cyclin Y (Q00537 whole entry): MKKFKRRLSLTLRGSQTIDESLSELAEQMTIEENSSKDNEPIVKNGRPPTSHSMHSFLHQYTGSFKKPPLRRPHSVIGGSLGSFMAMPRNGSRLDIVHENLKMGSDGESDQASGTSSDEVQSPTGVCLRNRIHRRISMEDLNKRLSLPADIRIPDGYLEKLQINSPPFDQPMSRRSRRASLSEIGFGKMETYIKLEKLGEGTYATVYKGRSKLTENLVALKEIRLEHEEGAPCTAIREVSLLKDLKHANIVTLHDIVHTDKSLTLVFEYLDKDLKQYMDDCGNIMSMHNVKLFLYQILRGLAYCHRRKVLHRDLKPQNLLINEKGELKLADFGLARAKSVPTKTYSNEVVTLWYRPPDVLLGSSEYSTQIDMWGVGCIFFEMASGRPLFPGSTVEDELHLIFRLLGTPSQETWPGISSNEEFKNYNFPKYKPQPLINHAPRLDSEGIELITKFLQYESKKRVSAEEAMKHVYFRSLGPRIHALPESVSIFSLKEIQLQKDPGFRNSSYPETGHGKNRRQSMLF
Chain of CDK17/Cyclin Y (Q8ND76 whole entry partner): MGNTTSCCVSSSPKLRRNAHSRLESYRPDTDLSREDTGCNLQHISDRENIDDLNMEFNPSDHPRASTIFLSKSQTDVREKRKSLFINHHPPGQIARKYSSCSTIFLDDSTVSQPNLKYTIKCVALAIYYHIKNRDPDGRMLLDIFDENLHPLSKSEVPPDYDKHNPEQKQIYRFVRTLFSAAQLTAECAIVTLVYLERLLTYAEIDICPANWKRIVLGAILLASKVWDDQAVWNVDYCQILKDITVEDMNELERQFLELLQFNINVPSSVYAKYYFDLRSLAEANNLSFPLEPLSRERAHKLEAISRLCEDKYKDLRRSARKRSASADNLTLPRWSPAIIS

CDK2/Cyclin E1 = CDK2/Cyclin E1 (Homo sapiens, UniProt P24941); test: NanoBRET live-cell target engagement, CDK2-NanoLuc/Cyclin E1 in HEK-293; type: binding; conditions: CDK2/E1
CDK7 = CDK7 (Homo sapiens, UniProt P50613); test: NanoBRET live-cell target engagement, NanoLuc-CDK7 in HEK-293; type: binding; conditions: CDK7
CDK11B/Cyclin L2 = CDK11B/Cyclin L2 (Homo sapiens, UniProt P21127); test: NanoBRET live-cell target engagement, CDK11B-NanoLuc/Cyclin L2 in HEK-293; type: binding; conditions: CDK11b/L2, 10µM
CDK1/Cyclin E1 = CDK1/Cyclin E1 (Homo sapiens, UniProt P06493); test: NanoBRET live-cell target engagement, CDK1-NanoLuc/Cyclin E1 in HEK-293; type: binding
Chain of CDK1/Cyclin E1 (P06493 whole entry): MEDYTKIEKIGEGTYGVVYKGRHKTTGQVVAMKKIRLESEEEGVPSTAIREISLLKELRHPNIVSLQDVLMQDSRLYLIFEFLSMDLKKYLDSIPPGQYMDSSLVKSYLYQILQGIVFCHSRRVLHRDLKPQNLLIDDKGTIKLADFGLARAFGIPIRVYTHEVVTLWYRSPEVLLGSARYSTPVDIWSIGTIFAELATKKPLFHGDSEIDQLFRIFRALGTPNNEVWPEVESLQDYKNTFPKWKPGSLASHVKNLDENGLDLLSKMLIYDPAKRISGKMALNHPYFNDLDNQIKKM
Chain of CDK1/Cyclin E1 (P24864 whole entry partner): as the sequence (P24864 whole entry partner) above

CDK11A/Cyclin L2 = biological target: T1, CDK11A/Cyclin L2 (Homo sapiens, UniProt Q9UQ88); test: NanoBRET live-cell target engagement, CDK11A-NanoLuc/Cyclin L2 in HEK-293; type: binding; conditions: CDK11a/L2, 10µM
T1 sequence (Q9UQ88 1-783): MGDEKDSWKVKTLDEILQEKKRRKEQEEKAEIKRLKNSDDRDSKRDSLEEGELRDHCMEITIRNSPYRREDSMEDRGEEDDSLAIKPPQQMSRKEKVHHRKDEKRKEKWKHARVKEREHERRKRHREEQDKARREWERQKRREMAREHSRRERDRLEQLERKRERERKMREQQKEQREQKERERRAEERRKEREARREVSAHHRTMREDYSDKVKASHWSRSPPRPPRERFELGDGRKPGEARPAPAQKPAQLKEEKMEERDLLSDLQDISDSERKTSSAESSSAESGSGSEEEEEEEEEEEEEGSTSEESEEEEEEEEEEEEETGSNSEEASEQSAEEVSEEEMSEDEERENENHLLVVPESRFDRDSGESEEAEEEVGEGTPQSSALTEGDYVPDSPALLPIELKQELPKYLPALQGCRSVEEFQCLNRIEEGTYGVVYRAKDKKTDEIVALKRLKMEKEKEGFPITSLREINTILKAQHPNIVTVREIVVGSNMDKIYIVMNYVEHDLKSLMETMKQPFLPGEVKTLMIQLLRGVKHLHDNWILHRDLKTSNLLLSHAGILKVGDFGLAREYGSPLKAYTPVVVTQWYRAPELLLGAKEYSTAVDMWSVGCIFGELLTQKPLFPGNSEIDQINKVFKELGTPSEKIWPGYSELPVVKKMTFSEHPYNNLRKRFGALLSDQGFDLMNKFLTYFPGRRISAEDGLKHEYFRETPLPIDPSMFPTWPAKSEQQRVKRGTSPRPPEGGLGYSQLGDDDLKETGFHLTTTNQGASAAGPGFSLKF

CDK14/Cyclin Y = CDK14/Cyclin Y (Homo sapiens, UniProt O94921); test: NanoBRET live-cell target engagement, CDK14-NanoLuc/Cyclin Y in HEK-293; type: binding; conditions: CDK14/Y
CDK5/CDK5R1 = CDK5/CDK5R1 (Homo sapiens, UniProt Q00535); test: NanoBRET live-cell target engagement, CDK5-NanoLuc/CDK5R1 in HEK-293; type: binding; conditions: CDK5/CDK5R1
Chain of CDK5/CDK5R1 (Q00535 whole entry): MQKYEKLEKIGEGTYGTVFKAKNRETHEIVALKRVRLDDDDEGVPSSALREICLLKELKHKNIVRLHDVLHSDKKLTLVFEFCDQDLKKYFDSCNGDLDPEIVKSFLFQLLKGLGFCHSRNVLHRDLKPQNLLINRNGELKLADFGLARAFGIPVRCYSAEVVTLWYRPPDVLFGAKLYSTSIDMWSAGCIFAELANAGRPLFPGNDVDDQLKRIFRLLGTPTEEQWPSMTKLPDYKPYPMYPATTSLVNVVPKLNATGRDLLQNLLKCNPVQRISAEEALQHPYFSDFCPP
Chain of CDK5/CDK5R1 (Q15078 whole entry partner): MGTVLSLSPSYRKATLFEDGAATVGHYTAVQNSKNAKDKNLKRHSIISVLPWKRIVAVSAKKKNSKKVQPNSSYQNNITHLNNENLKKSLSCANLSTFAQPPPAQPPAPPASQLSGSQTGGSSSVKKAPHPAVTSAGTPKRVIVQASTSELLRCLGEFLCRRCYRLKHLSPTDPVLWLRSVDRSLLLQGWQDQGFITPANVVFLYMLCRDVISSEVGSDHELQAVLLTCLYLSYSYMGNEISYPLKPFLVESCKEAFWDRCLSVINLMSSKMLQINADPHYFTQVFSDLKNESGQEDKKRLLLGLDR

[1] = n=3 average ± SEM, n=2 average to 2 significant figures, read-out: IC50 (nM) Average*
[2] = read-out: IC50 (nM) Replicate 1
[3] = read-out: IC50 (nM) Replicate 2

Chain of CDK15/Cyclin Y (Q96Q40 whole entry): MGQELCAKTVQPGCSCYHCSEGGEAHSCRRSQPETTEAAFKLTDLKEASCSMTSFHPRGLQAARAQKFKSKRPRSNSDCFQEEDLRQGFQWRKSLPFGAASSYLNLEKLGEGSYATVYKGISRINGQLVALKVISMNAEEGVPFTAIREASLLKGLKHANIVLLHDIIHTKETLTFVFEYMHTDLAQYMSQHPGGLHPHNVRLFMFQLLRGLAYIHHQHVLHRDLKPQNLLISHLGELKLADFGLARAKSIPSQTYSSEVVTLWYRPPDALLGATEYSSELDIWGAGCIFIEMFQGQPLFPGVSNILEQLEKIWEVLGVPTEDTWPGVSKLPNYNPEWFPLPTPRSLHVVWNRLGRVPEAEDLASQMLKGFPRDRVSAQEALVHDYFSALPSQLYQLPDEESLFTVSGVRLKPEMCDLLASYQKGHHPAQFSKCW
Chain of CDK15/Cyclin Y (Q8ND76 whole entry partner): as the sequence (Q8ND76 whole entry partner) above

CNC1CCN(C(=O)c2ccc(Nc3ncc(F)c(-c4cnc(C)n4C(C)C)n3)cc2)C1 (centres unmarked) [AZD5597]
Inhibition at 10µM (%) Replicate 1 (CDK15/Cyclin Y; 10µM): 93.9%
Inhibition at 10µM (%) Replicate 2 (CDK15/Cyclin Y; 10µM): 95.6%
Inhibition at 10µM (%) Average (CDK15/Cyclin Y; 10µM, average of replicates): 94.7%
IC50 (CDK15/Cyclin Y; [1]): 300 nM
IC50 (CDK15/Cyclin Y; [2]): 250 nM
IC50 (CDK15/Cyclin Y; [3]): 350 nM
Inhibition at 10µM (%) Replicate 1 (CDK16/Cyclin Y; 10µM): 88.2%
Inhibition at 10µM (%) Replicate 2 (CDK16/Cyclin Y; 10µM): 91.4%
IC50 (CDK16/Cyclin Y; [1]): 13 nM
IC50 (CDK16/Cyclin Y; [2]): 8.9 nM
IC50 (CDK16/Cyclin Y; [3]): 18 nM
Inhibition at 10µM (%) Replicate 1 (CDK8/Cyclin C; 10µM): 91.3%
Inhibition at 10µM (%) Replicate 2 (CDK8/Cyclin C; 10µM): 98.8%
Inhibition at 10µM (%) Average (CDK8/Cyclin C; 10µM, average of replicates): 95.1%
IC50 (CDK8/Cyclin C; [1]): 370 nM
IC50 (CDK8/Cyclin C; [2]): 434 nM
IC50 (CDK8/Cyclin C; [3]): 297 nM
Inhibition at 10µM (%) Replicate 1 (CDK20/Cyclin H): 68.9%
Inhibition at 10µM (%) Replicate 2 (CDK20/Cyclin H): 74.8%
Inhibition at 10µM (%) Replicate 1 (CDK6/Cyclin D1; 10µM): 99.7%
Inhibition at 10µM (%) Replicate 2 (CDK6/Cyclin D1; 10µM): 100.6%
Inhibition at 10µM (%) Average (CDK6/Cyclin D1; 10µM, average of replicates): 100.1%
IC50 (CDK6/Cyclin D1; [1]): 8.3 nM
IC50 (CDK6/Cyclin D1; [2]): 10 nM
IC50 (CDK6/Cyclin D1; [3]): 6.5 nM
Inhibition at 10µM (%) Replicate 1 (CDK19/Cyclin C; CDK19/C, 10µM): 88.7%
Inhibition at 10µM (%) Replicate 2 (CDK19/Cyclin C; CDK19/C, 10µM): 89.0%
Inhibition at 10µM (%) Average (CDK19/Cyclin C; CDK19/C, 10µM, average of replicates): 88.9%
IC50 (CDK19/Cyclin C; read-out: IC50 (nM) Average*, CDK19/Y, n=3 average ± SEM, n=2 average to 2 significant figures): 240 nM
IC50 (CDK19/Cyclin C; read-out: IC50 (nM) Replicate 1, CDK19/C): 354 nM
IC50 (CDK19/Cyclin C; read-out: IC50 (nM) Replicate 2, CDK19/C): 119 nM
Inhibition at 10µM (%) Replicate 1 (CDK4/Cyclin D1; 10µM): 101.0%
Inhibition at 10µM (%) Replicate 2 (CDK4/Cyclin D1; 10µM): 98.2%
Inhibition at 10µM (%) Average (CDK4/Cyclin D1; 10µM, average of replicates): 99.6%
IC50 (CDK4/Cyclin D1; [1]): 7 nM
IC50 (CDK4/Cyclin D1; [2]): 7.4 nM
IC50 (CDK4/Cyclin D1; [3]): 6.6 nM
Inhibition at 10µM (%) Replicate 1 (CDK9/Cyclin K): 98.2%
Inhibition at 10µM (%) Replicate 2 (CDK9/Cyclin K): 100.7%
Inhibition at 10µM (%) Average (CDK9/Cyclin K; average of replicates): 99.5%
Inhibition at 10µM (%) Replicate 1 (CDK10/Cyclin L2; 10µM): 85.6%
Inhibition at 10µM (%) Replicate 2 (CDK10/Cyclin L2; 10µM): 87.4%
Inhibition at 10µM (%) Average (CDK10/Cyclin L2; 10µM, average of replicates): 86.5%
IC50 (CDK10/Cyclin L2; read-out: IC50 (nM) Average*, n=3 average ± SEM, n=2 average to 2 significant figures): 520 nM
IC50 (CDK10/Cyclin L2; [2]): 450 nM
IC50 (CDK10/Cyclin L2; [3]): 580 nM
Inhibition at 10µM (%) Replicate 1 (CDK18/Cyclin Y; 10µM): 94.0%
Inhibition at 10µM (%) Replicate 2 (CDK18/Cyclin Y; 10µM): 101.0%
Inhibition at 10µM (%) Average (CDK18/Cyclin Y; 10µM, average of replicates): 97.5%
IC50 (CDK18/Cyclin Y; [1]): 130 nM
IC50 (CDK18/Cyclin Y; [2]): 86 nM
IC50 (CDK18/Cyclin Y; [3]): 174 nM
Inhibition at 10µM (%) Replicate 1 (CDK3/Cyclin E1; 10µM): 99.1%
Inhibition at 10µM (%) Replicate 2 (CDK3/Cyclin E1; 10µM): 98.8%
Inhibition at 10µM (%) Average (CDK3/Cyclin E1; 10µM, average of replicates): 98.9%
IC50 (CDK3/Cyclin E1; [1]): 3.4 nM
IC50 (CDK3/Cyclin E1; [2]): 1.6 nM
IC50 (CDK3/Cyclin E1; [3]): 5.2 nM
Inhibition at 10µM (%) Replicate 1 (CDK17/Cyclin Y; 10µM): 90.9%
Inhibition at 10µM (%) Replicate 2 (CDK17/Cyclin Y; 10µM): 91.8%
Inhibition at 10µM (%) Average (CDK17/Cyclin Y; 10µM, average of replicates): 91.3%
IC50 (CDK17/Cyclin Y; [1]): 10 nM
IC50 (CDK17/Cyclin Y; [2]): 6.5 nM
IC50 (CDK17/Cyclin Y; [3]): 13 nM
Inhibition at 10µM (%) Replicate 1 (CDK2/Cyclin E1; 10µM): 99.9%
Inhibition at 10µM (%) Replicate 2 (CDK2/Cyclin E1; 10µM): 99.7%
Inhibition at 10µM (%) Average (CDK2/Cyclin E1; 10µM, average of replicates): 99.8%
IC50 (CDK2/Cyclin E1; [1]): 6.6 nM
IC50 (CDK2/Cyclin E1; [2]): 6.7 nM
IC50 (CDK2/Cyclin E1; [3]): 6.4 nM
Inhibition at 10µM (%) Replicate 1 (CDK7; 10µM): 95.4%
Inhibition at 10µM (%) Replicate 2 (CDK7; 10µM): 93.6%
Inhibition at 10µM (%) Average (CDK7; 10µM, average of replicates): 94.5%
IC50 (CDK7; [1]): 120 nM
IC50 (CDK7; [2]): 100 nM
IC50 (CDK7; [3]): 150 nM
Inhibition at 10µM (%) Replicate 1 (CDK11B/Cyclin L2): 88.8%
Inhibition at 10µM (%) Replicate 2 (CDK11B/Cyclin L2): 88.6%
Inhibition at 10µM (%) Average (CDK11B/Cyclin L2; average of replicates): 88.7%
Inhibition at 10µM (%) Replicate 1 (CDK1/Cyclin E1; CDK1/E1, 10µM): 93.8%
Inhibition at 10µM (%) Replicate 2 (CDK1/Cyclin E1; CDK1/E1, 10µM): 95.4%
Inhibition at 10µM (%) Average (CDK1/Cyclin E1; CDK1/E1, 10µM, average of replicates): 94.6%
IC50 (CDK1/Cyclin E1; CDK1/E1, n=3 average ± SEM, n=2 average to 2 significant figures, read-out: IC50 (nM) Average*): 9 nM
IC50 (CDK1/Cyclin E1; CDK1/E1, read-out: IC50 (nM) Replicate 1): 9 nM
IC50 (CDK1/Cyclin E1; CDK1/E1, read-out: IC50 (nM) Replicate 2): 9 nM
IC50 (CDK1/Cyclin E1; live HEK-293, 2 h, mean ± S.E.M. (n=3) or mean (n=2), read-out: IC50 for CDK/cyclin complexes, CDK1/E1): 9 nM
Inhibition at 10µM (%) Replicate 1 (CDK11A/Cyclin L2): 89.7%
Inhibition at 10µM (%) Replicate 2 (CDK11A/Cyclin L2): 90.1%
Inhibition at 10µM (%) Average (CDK11A/Cyclin L2; average of replicates): 89.9%
Inhibition at 10µM (%) Replicate 1 (CDK14/Cyclin Y; 10µM): 93.6%
Inhibition at 10µM (%) Replicate 2 (CDK14/Cyclin Y; 10µM): 93.4%
Inhibition at 10µM (%) Average (CDK14/Cyclin Y; 10µM, average of replicates): 93.5%
IC50 (CDK14/Cyclin Y; [1]): 250 nM
IC50 (CDK14/Cyclin Y; [2]): 151 nM
IC50 (CDK14/Cyclin Y; [3]): 350 nM
Inhibition at 10µM (%) Replicate 1 (CDK5/CDK5R1; 10µM): 90.7%
Inhibition at 10µM (%) Replicate 2 (CDK5/CDK5R1; 10µM): 97.1%
Inhibition at 10µM (%) Average (CDK5/CDK5R1; 10µM, average of replicates): 93.9%
IC50 (CDK5/CDK5R1; [1]): 10 nM
IC50 (CDK5/CDK5R1; [2]): 8.2 nM
IC50 (CDK5/CDK5R1; [3]): 12 nM
